In patent publication US9994594B2, “Inhibitors of arginase and their therapeutic applications” (MARS, INCORPORATED, priority 2010, dated 2018):
Where a name gives a salt, the structure may show the parent alone. Read-outs that look alike come from different tables or passages of the source.

How the values were obtained:
arginase II (ARG II) = biological target: T1, arginase II (ARG II) (Homo sapiens, UniProt P78540); experiment: Inhibition of arginase II, spectrophotometric urea assay at 530 nm; type: biochemical
T1 sequence (P78540 23-354): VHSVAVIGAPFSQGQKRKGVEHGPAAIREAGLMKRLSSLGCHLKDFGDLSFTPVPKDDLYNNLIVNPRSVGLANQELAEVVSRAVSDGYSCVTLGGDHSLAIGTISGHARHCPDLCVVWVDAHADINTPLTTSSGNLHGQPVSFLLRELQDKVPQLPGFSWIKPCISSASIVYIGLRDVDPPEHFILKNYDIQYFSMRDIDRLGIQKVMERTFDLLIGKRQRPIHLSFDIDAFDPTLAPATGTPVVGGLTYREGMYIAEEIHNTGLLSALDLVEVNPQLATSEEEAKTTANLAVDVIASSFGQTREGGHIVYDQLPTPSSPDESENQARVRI
Method: (§1) The assay established the concentration of inhibitor that is required to reduce arginase activity by 50% (IC50).
(§2) Inhibition of arginase I (ARG I) and arginase II (ARG II) by Formula I and Formula II compounds is followed spectrophotometrically at 530 nm. The compound to be tested is dissolved in DMSO at an initial concentration 50-fold greater than its final concentration in the cuvette. 10 μl of the stock solution is diluted in 90 μl of the assay buffer that comprises 0.1M sodium phosphate buffer containing 130 mM NaCl, pH 7.4, to which is added ovalbumin (OVA) at a concentration of 1 mg/ml. Solutions of arginase I and II are prepared in 100 mM sodium phosphate buffer, pH 7.4 containing 1 mg/ml of OVA to give an arginase stock solution at a final concentration of 100 ng/ml.
(§3) To each well of a 96-well microtiter plate is add 40 μl of enzyme, 10 μl of an inventive compound and 10 μl of enzyme substrate (L-arginine+manganese sulfate). For wells that are used as positive controls, only the enzyme and its substrate are added, while wells used as negative controls contain only manganese sulfate.
(§4) After incubating the microtiter plate at 37° C. for 60 minutes, 150 μl of a urea reagent obtained by combining equal proportions (1:1) of reagents A and B is added to each well of the microtiter plate to stop the reaction. The urea reagent is made just before use by combining Reagent A (10 mM o-phthaldialdehyde, and 0.4% polyoxyethylene (23) lauryl ether (w/v) in 1.8 M sulfuric acid) with Reagent B (1.3 mM primaquine diphosphate, 0.4% polyoxyethylene (23) lauryl ether (w/v), 130 mM boric acid in 3.6 M sulfuric acid). After quenching the reaction mixture, the microtiter plate is allowed to stand for an additional 10 minutes at room temperature to allow color development. The inhibition of arginase is computed by measuring the optical density (OD) of the reaction mixture at 530 nm and normalizing the OD value to percent inhibition observed in the control. The normalized OD is then used to generate a dose-response curve by plotting the normalized OD values against log [concentration] and using regression analysis to compute the IC50 values.

human arginase I (ARG I) = biological target: T2, human arginase I (ARG I) (Homo sapiens, UniProt P05089); experiment: Inhibition of arginase I, spectrophotometric urea assay at 530 nm; type: biochemical; conditions: read-out: Potency (ARG I)
T2 sequence (P05089 1-322): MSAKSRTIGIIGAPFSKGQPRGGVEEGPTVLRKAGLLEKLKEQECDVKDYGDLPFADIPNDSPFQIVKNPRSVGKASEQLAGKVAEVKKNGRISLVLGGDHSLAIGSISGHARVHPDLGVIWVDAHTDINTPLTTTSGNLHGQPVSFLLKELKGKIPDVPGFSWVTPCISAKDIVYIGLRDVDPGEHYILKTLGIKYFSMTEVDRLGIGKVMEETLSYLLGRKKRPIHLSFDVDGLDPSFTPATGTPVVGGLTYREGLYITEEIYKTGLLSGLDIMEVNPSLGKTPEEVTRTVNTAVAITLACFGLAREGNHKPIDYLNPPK
Method: as §1, §2, §3, §4

[1] = Formula I compounds, Table 2, read-out: Potency (ARG II)
[2] = Formula II compounds, Table 2-A, read-out: Potency (ARG)
[3] = Formula II compounds, Table 2-A

| Compound | IC50 (arginase II (ARG II); [1]) [nM] | IC50 (arginase II (ARG II); [2]) [nM] | IC50 (human arginase I (ARG I); [3]) [nM] | IC50 (human arginase I (ARG I); Formula I compounds, Table 2) [nM] |
| --- | --- | --- | --- | --- |
| NC(CCCCB(O)O)(Cc1ccccc1)C(=O)O (stereo not drawn) [compound 99, 2-amino-2-benzyl-6-boronohexanoic acid hydrochloride] | > 5000 | – | – | – |
| NC(CCCCB(O)O)(C(=O)O)C1CCN(CCCc2cc(F)cc(Cl)c2)CC1 (stereo not drawn) [Example 50-A, 2-amino-6-borono-2-(1-(3-(3-chloro-5-fluorophenyl)propyl)piperidin-4-yl)hexanoic acid] | – | 251 to 1000 | 0.1 to 250 | – |
| NC(CCCCB(O)O)(C(=O)O)C1CCN(Cc2ccc(F)c3ccccc23)CC1 (stereo not drawn) [Example 51-A, 2-amino-6-borono-2-(1-((4-fluoronaphthalen-1-yl)methyl)piperidin-4-yl)hexanoic acid] | – | 251 to 1000 | 0.1 to 250 | – |
| NC(CCCCB(O)O)(CCN1CCC(C(=O)O)CC1)C(=O)O (stereo not drawn) [compound 21, 1-(3-amino-7-borono-3-carboxyheptyl)piperidine-4-carboxylic acid] | 1000 to 2000 | – | – | 1000 to 2000 |
| N[C@H]1CC[C@H]([C@](N)(CCCCB(O)O)C(=O)O)C1 [16-A, (R)-2-amino-2-((1S,3S)-3-aminocyclopentyl)-6-boronohexanoic acid dihydrochloride] | – | 0.1 to 250 | 0.1 to 250 | – |
| NC(CCCCB(O)O)(C(=O)O)C1CCN(Cc2ccccc2C(F)(F)F)CC1 (stereo not drawn) [Example 53-A, 2-amino-6-borono-2-(1-(2-(trifluoromethyl)benzyl)piperidin-4-yl)hexanoic acid dihydrochloride] | – | 251 to 1000 | 251 to 1000 | – |
| NC(CCCCB(O)O)(C(=O)O)C1CCN(CCCc2ccc(C(F)(F)F)cc2)CC1 (stereo not drawn) [Example 63-A, 2-amino-6-borono-2-(1-(3-(4-(trifluoromethyl)phenyl)propyl)piperidin-4-yl)hexanoic acid acid dihydrochloride] | – | 0.1 to 250 | 0.1 to 250 | – |
| NC(CCCCB(O)O)(C(=O)O)C(O)C1CCNCC1 (stereo not drawn) [compound 109, 2-amino-6-borono-2-(hydroxy(piperidin-4-yl)methyl)hexanoic acid dihydrochloride] | > 5000 | – | – | 2000 to 5000 |
| NC(CCCCB(O)O)(C(=O)O)C1CCN(C(=O)Nc2ccc(Cl)cc2)CC1 (stereo not drawn) [32-A, 2-amino-6-borono-2-{1-[(4-chlorophenyl)-carbamoyl]piperidin-4-yl}hexanoic acid hydrochloride] | – | 251 to 1000 | 251 to 1000 | – |
| NC(CCCCB(O)O)(C(=O)O)C1CCCN(Cc2ccc(Cl)c(Cl)c2)CC1 (stereo not drawn) [Example 73-A, 2-amino-6-borono-2-(1-(3,4-dichlorobenzyl)azepan-4-yl)hexanoic acid dihydrochloride] | – | 251 to 1000 | 0.1 to 250 | – |
| NC(CCCCB(O)O)(CCN1CCC[C@H](C(=O)O)C1)C(=O)O (stereo partly drawn) [compound 56, (3S)-1-(3-amino-7-borono-3-carboxyheptyl)piperidine-3-carboxylic acid dihydrochloride] | 2000 to 5000 | – | – | 1000 to 2000 |
| NC(CCCCB(O)O)(CCN1CCC(Cc2ccc(C(F)(F)F)cc2)CC1)C(=O)O (stereo not drawn) [compound 126, 2-amino-6-borono-2-(2-(4-(4-(trifluoromethyl)benzyl)piperidine-1-yl)ethyl)hexanoic acid dihydrochloride] | 251 to 1000 | – | – | 251 to 1000 |
| NC(CCCCB(O)O)(C(=O)O)C1CCN(C(=O)NCCc2ccc(F)cc2)CC1 (stereo not drawn) [33-A, 2-amino-6-borono-2-(1-{[2-(4-fluorophenyl)ethyl]-carbamoyl}piperidin-4-yl)hexanoic acid hydrochloride] | – | 1000 to 2000 | 1000 to 2000 | – |
| NC(CCCCB(O)O)(CCN(CCO)Cc1ccccc1)C(=O)O (stereo not drawn) [compound 20, 2-Amino-2-{2-[benzyl-(2-hydroxyethyl)-amino]-ethyl}-6-borono-hexanoic acid dihydrochloride] | 2000 to 5000 | – | – | 2000 to 5000 |
| N[C@](CCCCB(O)O)(CCN1CCCCC1)C(=O)O [compound 13, (R)-2-amino-6-borono-2-(2-(piperidin-1-yl)ethyl)hexanoic acid] | 251 to 1000 | – | – | 0.1 to 250 |
| CC(C)C(=O)NCCC(N)(CCCCB(O)O)C(=O)O (stereo not drawn) [compound 120, 2-amino-6-borono-2-(2-isobutyramidoethyl)hexanoic acid hydrochloride] | 2000 to 5000 | – | – | 1000 to 2000 |

| Compound | IC50 (arginase II (ARG II); [1]) [nM] | IC50 (arginase II (ARG II); [2]) [nM] | IC50 (human arginase I (ARG I); [3]) [nM] | IC50 (human arginase I (ARG I); Formula I compounds, Table 2) [nM] |
| --- | --- | --- | --- | --- |
| NC(CCCCB(O)O)(CCC1Cc2ccccc2CN1CC1CCCCC1)C(=O)O (stereo not drawn) [compound 134, 2-amino-6-borono-2-(2-(2-(cyclohexylmethyl)-1,2,3,4-tetrahydroisoquinolin-3-yl)ethyl)hexanoic acid dihydrochloride] | 251 to 1000 | – | – | 0.1 to 250 |
| N[C@](CCCCB(O)O)(CCN1CCC[C@H](O)C1)C(=O)O [compound 5, (R)-2-amino-6-borono-2-(2-((S)-3-hydroxypiperidin-1-yl)ethyl)hexanoic acid dihydrochloride] | 2000 to 5000 | – | – | 1000 to 2000 |
| NC(CCCCB(O)O)(C(=O)O)[C@@H]1CCN(Cc2ccccc2)C1 (stereo partly drawn) [Example 67-A, 2-amino-2-((R)-1-benzylpyrrolidin-3-yl)-6-boronohexanoic acid dihydrochloride] | – | 251 to 1000 | 251 to 1000 | – |
| NC(CCCCB(O)O)(C(=O)O)C1CCN(Cc2ccc3ccccc3c2)CC1 (stereo not drawn) [Example 99-A, 2-amino-6-borono-2-(1-(naphthalen-2-ylmethyl)piperidin-4-yl)hexanoic acid dihydrochloride] | – | 0.1 to 250 | 0.1 to 250 | – |
| NC(CCCCB(O)O)(CN1CCOCC1)C(=O)O (stereo not drawn) [compound 81, 2-amino-6-borono-2-(morpholinomethyl)hexanoic acid dihydrochloride] | > 5000 | – | – | – |
| NC(CCCCB(O)O)(CCN1CCNCC1)C(=O)O (stereo not drawn) [compound 32, 2-amino-6-borono-2-(2-(piperazin-1-yl)ethyl)hexanoic acid trihydrochloride] | 2000 to 5000 | – | – | – |
| NC(CCCCB(O)O)(Cc1cccc(F)c1)C(=O)O (stereo not drawn) [compound 98, 2-amino-6-borono-2-(3-fluorobenzyl)hexanoic acid hydrochloride] | > 5000 | – | – | – |
| CC(C)C(N)(CCCCB(O)O)C(=O)O (stereo not drawn) [compound 105, 2-amino-6-borono-2-isopropylhexanoic acid hydrochloride] | > 5000 | – | – | – |
| CN1CCN(CCC(N)(CCCCB(O)O)C(=O)O)CC1 (stereo not drawn) [compound 35, 2-amino-6-borono-2-(2-(4-methylpiperazin-1-yl)ethyl)hexanoic acid trihydrochloride] | 2000 to 5000 | – | – | – |
| NC(CO)(CCCCB(O)O)C(=O)O (stereo not drawn) [compound 82, 2-amino-6-borono-2-(hydroxymethyl)hexanoic acid hydrochloride] | 2000 to 5000 | – | – | – |
| NC(CCCCB(O)O)(CCN1CCOCC1)C(=O)O (stereo not drawn) [compound 24, 2-amino-6-borono-2-(2-morpholinoethyl)hexanoic acid] | 2000 to 5000 | – | – | – |
| NC(CCCCB(O)O)(CCC1Cc2ccccc2CN1)C(=O)O (stereo not drawn) [compound 131, 2-amino-6-borono-2-(2-(1,2,3,4-tetrahydroisoquinolin-3-yl)ethyl)hexanoic acid dihydrochloride] | – | – | – | 251 to 1000 |
| O=C(O)C1(CCCCB(O)O)CCCN1 (stereo not drawn) [compound 103, 2-(4-boronobutyl)pyrrolidine-2-carboxylic acid hydrochloride] | > 5000 | – | – | – |
| NC(CCCO)(CCCCB(O)O)C(=O)O (stereo not drawn) [compound 101, 2-amino-6-borono-2-(3-hydroxypropyl)hexanoic acid hydrochloride] | – | – | – | 2000 to 5000 |
| COCCCC(N)(CCCCB(O)O)C(=O)O (stereo not drawn) [compound 100, 2-amino-6-borono-2-(3-methoxypropyl)hexanoic acid hydrochloride] | > 5000 | – | – | – |
| CC(C)CC(N)(CCCCB(O)O)C(=O)O (stereo not drawn) [compound 104, 2-amino-6-borono-2-isobutylhexanoic acid hydrochloride] | > 5000 | – | – | – |
